Experimental data reported in publication PMC9254721, “Global update on the susceptibilities of human influenza viruses to neuraminidase inhibitors and the cap-dependent endonuclease inhibitor baloxavir, 2018–2020” (Antiviral research, 2022).
Where “and” joins values, the source holds several entries; their conditions need not be identical. Equal entries are not always repeated.

Legend:
[1] = test system: A(H3N2) virus neuraminidase (NA); assay type: biochemical, influenza A(H3N2) virus
[2] = test system: B/Victoria-lineage virus neuraminidase (NA); assay type: biochemical, influenza B/Victoria-lineage virus
[3] = test system: A(H1N1)pdm09 virus neuraminidase (NA); assay type: biochemical, influenza A(H1N1)pdm09 virus
[4] = test system: A(H1N1)pdm09 viruses; assay type: cell-based, influenza A(H1N1)pdm09 virus
[5] = test system: A(H3N2) viruses; assay type: cell-based, influenza A(H3N2) virus
[6] = test system: B/Victoria-lineage viruses; assay type: cell-based, influenza B/Victoria-lineage virus
[7] = test system: influenza viruses; assay type: cell-based, influenza virus
[8] = test system: recombinant A(H1N1) virus; details: PA-A37S in a recombinant A(H1N1) virus; ref Hashimoto et al., 2021; cited from earlier work
[9] = test system: influenza viruses; details: PA-I38V, PA-E199G alone, when present in other subtypes; ref PA marker table; cited from earlier work

## CCOC(=O)C1=C[C@@H](OC(CC)CC)[C@H](NC(C)=O)[C@@H](N)C1 [Oseltamivir, oseltamivir]
[1]
  inhibition phenotype (NI/RI/HRI): RI (key: normal inhibition (NI) is a <10-fold increase in the NAI IC50; RI is a 10- to 100-fold increase; HRI is a >100-fold increase)
[2]
  inhibition phenotype (NI/RI/HRI): RI/HRI

## CC(=O)N[C@H]1[C@H]([C@H](O)[C@H](O)CO)OC(C(=O)O)=C[C@@H]1N=C(N)N [Zanamivir, zanamivir]
[1]
  inhibition phenotype (NI/RI/HRI): RI (key: normal inhibition (NI) is a <10-fold increase in the NAI IC50; RI is a 10- to 100-fold increase; HRI is a >100-fold increase)

## [H]/N=C(\N)N[C@H]1C=C(C(=O)O)O[C@@H]([C@H](OC)[C@H](O)CO)[C@@H]1NC(C)=O [Laninamivir, laninamivir]
[3]
  inhibition phenotype (NI/RI/HRI): RI (key: normal inhibition (NI) is a <10-fold increase in the NAI IC50; RI is a 10- to 100-fold increase; HRI is a >100-fold increase)

## COC(=O)OCOc1c2n(ccc1=O)N([C@@H]1c3ccccc3SCc3c1ccc(F)c3F)[C@@H]1COCCN1C2=O [baloxavir, baloxavir marboxil]
[4]
  Fold-change in susceptibility to baloxavir compared to PA sequence-matched control virus: 4.7 [4.1] fold and 2.90 [3.7] fold
  fold increase in EC50 compared to a PA sequence matched control: 4.1 fold
[5]
  fold increase in EC50 compared to the respective PA sequence-matched controls: < 3 fold
[6]
  EC50 fold-change as compared to reference median EC50: 0.88 [1.5] fold and 0.6 fold
  Fold-change in susceptibility to baloxavir compared to PA sequence-matched control virus: 0.88 [1.5] fold
[7]
  change in baloxavir susceptibility: no change
  fold increase in EC50 as compared to the respective median EC50s: < 3 fold
[8]
  effect of substitution on baloxavir susceptibility: did not alter baloxavir susceptibility
[9]
  effect of substitutions on in vitro baloxavir susceptibility: little or no effect

## CCC(CC)[C@H](NC(C)=O)[C@@H]1[C@H](O)[C@@H](C(=O)O)C[C@H]1N=C(N)N [Peramivir, peramivir]
[1]
  IC50 fold-change as compared to reference median IC50 values: 2 fold and 1.5 fold and 1 fold
  IC50 fold-change compared to reference median IC50 values: 2 (1) fold and 1.5 fold and 1 fold
